Results reported in patent US12325697B2 (Nimbus Clio, Inc., priority 2021, dated 2025).
Like-named read-outs stand apart in the source and are kept apart here.

What was measured:
[1] = target: Recombinant human Cbl-b (aa 36-427) (Homo sapiens (Human), UniProt Q13191); experiment: Cbl-b Biochemical Assay (TR-FRET); settings: read-out: TR-FRET hCbl-b IC50
How it was run: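 IC50 from 4-parameter fit of % inhibition (DMSO max, reference-inhibitor min), duplicate ten-point series. Compound preincubated with 6 nM Cbl-b, then Src-Zap70 (1-2.5 nM)/0.5 mM ATP reaction 60 min RT; EDTA quench with labelled UBE2D2-Ub and streptavidin-terbium, 60 min, HTRF at 520 nm.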

[2] = tested on: Jurkat (clone E6-1) cells, NFAT luciferase reporter; experiment: Jurkat Reporter Assay (NFAT Luciferase); format: cell-based; settings: Homo sapiens
[3] = tested on: Phospho-Zap70 (Y-319) in Jurkat wild-type (clone E6-1) cells; experiment: Jurkat pZAP70 HTRF Assay; format: cell-based; settings: Homo sapiens
[4] = anti-CD3 stimulation, 6 hr, read-out: Jurkat NFAT EC50
[5] = anti-CD3 5 μg/ml, 3 hr, read-out: ZAP70 Jurkat EC50

Recombinant human Cbl-b (aa 36-427), sequence (Q13191 36-427): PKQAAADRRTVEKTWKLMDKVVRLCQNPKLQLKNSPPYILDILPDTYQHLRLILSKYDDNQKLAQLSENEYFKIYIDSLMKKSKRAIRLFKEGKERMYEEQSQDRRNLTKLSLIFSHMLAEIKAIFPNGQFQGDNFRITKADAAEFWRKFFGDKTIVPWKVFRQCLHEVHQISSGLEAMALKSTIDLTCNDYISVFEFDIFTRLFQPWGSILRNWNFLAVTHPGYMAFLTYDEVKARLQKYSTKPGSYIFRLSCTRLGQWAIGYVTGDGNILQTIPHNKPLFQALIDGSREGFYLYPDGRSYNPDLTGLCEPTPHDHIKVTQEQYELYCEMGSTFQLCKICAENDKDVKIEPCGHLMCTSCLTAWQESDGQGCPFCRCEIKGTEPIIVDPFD

With C[C@@H](NCC1(O)CCC1)c1cc2c(c(C(F)(F)F)c1)CN(c1cc(-c3ccccc3-c3nncn3C)cc(C3CC3)n1)C2=O (single isomer, unassigned) [AFU-1] the IC50 [1] was ≤ 200 nM, the EC50 [2, 4] was < 0.2 µM and the EC50 [3, 5] was < 0.2 µM.
With CCNc1cc(-c2ccc(C#N)cc2-c2nncn2C)cc(N2Cc3c(cc([C@@H](O)CN(C)C)cc3C(F)(F)F)C2=O)n1 (single isomer, unassigned) [AGK-1] the IC50 [1] was ≤ 200 nM, the EC50 [2, 4] was < 0.2 µM and the EC50 [3, 5] was 0.2 to 1 µM.
CCNc1cc(-c2ccc(C#N)cc2-c2nncn2C)cc(N2Cc3c(cc([C@H](O)CN(C)C)cc3C(F)(F)F)C2=O)n1 (single isomer, unassigned) [AGL-1] was tested, and the IC50 [1] was ≤ 200 nM, the EC50 [2, 4] was < 0.2 µM and the EC50 [3, 5] was 0.2 to 1 µM.
CCNc1cc(-c2c(-c3nncn3C)cnn2C)cc(N2Cc3c(cc(CN[C@@H]4CCC[C@@H]4O)cc3C(F)(F)F)C2=O)n1 [ADF-2, 2-[6-(Ethylamino)-4-[2-methyl-4-(4-methyl-1,2,4-triazol-3-yl)pyrazol-3-yl]pyridin-2-yl]-6-({[(1R,2S)-2-hydroxycyclopentyl]amino}methyl)-4-(trifluoromethyl)-3H-isoindol-1-one] was tested, and the IC50 [1] was ≤ 200 nM, the EC50 [2, 4] was < 0.2 µM and the EC50 [3, 5] was < 0.2 µM.
With CCNc1cc(-c2c(-c3nncn3C)cnn2C)cc(N2Cc3c(cc(CO[C@@H]4CCC[C@@H]4O)cc3C(F)(F)F)C2=O)n1 [ADH-1, 2-[6-(Ethylamino)-4-[2-methyl-4-(4-methyl-1,2,4-triazol-3-yl)pyrazol-3-yl]pyridin-2-yl]-6-({[(1R,2S)-2-hydroxycyclopentyl]oxy}methyl)-4-(trifluoromethyl)-3H-isoindol-1-one] the IC50 [1] was ≤ 200 nM, the EC50 [2, 4] was < 0.2 µM and the EC50 [3, 5] was 0.2 to 1 µM.
With CCNc1cc(-c2c(-c3nncn3C)cnn2C)cc(N2Cc3c(cc(CNCC4(O)CCC4)cc3C(F)(F)F)C2=O)n1 [ADJ-1, 2-[6-(Ethylamino)-4-[2-methyl-4-(4-methyl-1,2,4-triazol-3-yl)pyrazol-3-yl]pyridin-2-yl]-6-({[(1-hydroxycyclobutyl)methyl]amino}methyl)-4-(trifluoromethyl)-3H-isoindol-1-one] the IC50 [1] was ≤ 200 nM, the EC50 [2, 4] was < 0.2 µM and the EC50 [3, 5] was < 0.2 µM.
Cn1cnnc1-c1cnn(C)c1-c1cccc(N2Cc3c(cc(CN[C@@H]4CCC[C@@H]4O)cc3C(F)(F)F)C2=O)c1 [ADO-2, 6-({[(1R,2S)-2-Hydroxycyclopentyl]amino}methyl)-2-{3-[2-methyl-4-(4-methyl-1,2,4-triazol-3-yl)pyrazol-3-yl]phenyl}-4-(trifluoromethyl)-3H-isoindol-1-one] was tested, and the IC50 [1] was ≤ 200 nM, the EC50 [2, 4] was < 0.2 µM and the EC50 [3, 5] was < 0.2 µM.
In the case of CCNc1cc(-c2ccc(C#N)cc2-c2nncn2C)cc(N2Cc3c(cccc3C(F)(F)F)C2=O)n1 [ADP-8, 4-[2-(Ethylamino)-6-[1-oxo-4-(trifluoromethyl)-3H-isoindol-2-yl]pyridin-4-yl]-3-(4-methyl-1,2,4-triazol-3-yl)benzonitrile], the IC50 [1] is reported as ≤ 200 nM, the EC50 [2, 4] is reported as < 0.2 µM and the EC50 [3, 5] is reported as 1 to 10 µM.
For C[C@H]1CCCN(Cc2cc3c(c(C(F)(F)F)c2)CN(c2cccc(-c4ccc(C#N)cc4-c4nncn4C)c2)C3=O)C1 [ADQ-2, 2-(4-methyl-1,2,4-triazol-3-yl)-3′-(6-{[(3S)-3-methylpiperidin-1-yl]methyl}-1-oxo-4-(trifluoromethyl)-3H-isoindol-2-yl)-[1,1′-biphenyl]-4-carbonitrile], the IC50 [1] was ≤ 200 nM, the EC50 [2, 4] was < 0.2 µM and the EC50 [3, 5] was < 0.2 µM.
Cn1cnnc1-c1cnn(C)c1-c1cc(C2CC2)nc(N2Cc3c(cc(CNCC4(O)CCC4)cc3C(F)(F)F)C2=O)c1 [ADR-3] was tested, and the IC50 [1] was ≤ 200 nM, the EC50 [2, 4] was < 0.2 µM and the EC50 [3, 5] was < 0.2 µM.
With CCNc1cc(-c2ccc(C#N)cc2-c2nncn2C)cc(N2Cc3c(cc(CN4CCC[C@H](C)C4)cc3C(F)(F)F)C2=O)n1 [ADT-2, 4-[2-(Ethylamino)-6-(6-{[(3S)-3-methylpiperidin-1-yl]methyl}-1-oxo-4-(trifluoromethyl)-3H-isoindol-2-yl)pyridin-4-yl]-3-(4-methyl-1,2,4-triazol-3-yl)benzonitrile] the IC50 [1] was ≤ 200 nM, the EC50 [2, 4] was < 0.2 µM and the EC50 [3, 5] was < 0.2 µM.
With CCNc1cc(-c2ccc(C#N)cc2-c2nncn2C)cc(N2Cc3c(cc(CN4CCC[C@@H](C)C4)cc3C(F)(F)F)C2=O)n1 [ADU-2, 4-[2-(Ethylamino)-6-(6-{[(3R)-3-methylpiperidin-1-yl]methyl}-1-oxo-4-(trifluoromethyl)-3H-isoindol-2-yl)pyridin-4-yl]-3-(4-methyl-1,2,4-triazol-3-yl) benzonitrile] the IC50 [1] was ≤ 200 nM, the EC50 ([2]; 6 h, read-out: Jurkat NFAT EC50 (μM)) was < 0.2 µM and the EC50 ([3]; 3 h, read-out: ZAP70 Jurkat EC50 (μM)) was 0.2 to 1 µM.
For Cn1cnnc1-c1cc(C#N)ccc1-c1cccc(N2Cc3c(cc(CNCC4(O)CCC4)cc3C(F)(F)F)C2=O)c1 [ADV-1, 3′-[6-({[(1-Hydroxycyclobutyl)methyl]amino}methyl)-1-oxo-4-(trifluoromethyl)-3H-isoindol-2-yl]-2-(4-methyl-1,2,4-triazol-3-yl)-[1,1′-biphenyl]-4-carbonitrile], the IC50 [1] was ≤ 200 nM, the EC50 [2, 4] was < 0.2 µM and the EC50 [3, 5] was < 0.2 µM.
For CCNc1cc(-c2ccc(C#N)cc2-c2nncn2C)cc(N2Cc3c(cc(CO)cc3C(F)(F)F)C2=O)n1 [ADX-2, 4-[2-(Ethylamino)-6-[6-(hydroxymethyl)-1-oxo-4-(trifluoromethyl)-3H-isoindol-2-yl]pyridin-4-yl]-3-(4-methyl-1,2,4-triazol-3-yl) benzonitrile], the IC50 [1] was ≤ 200 nM, the EC50 [2, 4] was < 0.2 µM and the EC50 [3, 5] was 0.2 to 1 µM.
Cn1cnnc1-c1ccccc1-c1cc(C2CC2)nc(N2Cc3c(cc(CNCC4(O)CCC4)cc3C(F)(F)F)C2=O)c1 [ADZ-2, 2-{6-Cyclopropyl-4-[2-(4-methyl-1,2,4-triazol-3-yl)phenyl]pyridin-2-yl}-6-({[(1-hydroxycyclobutyl)methyl]amino}methyl)-4-(trifluoromethyl)-3H-isoindol-1-one] was tested, and the IC50 [1] was ≤ 200 nM, the EC50 [2, 4] was < 0.2 µM and the EC50 [3, 5] was < 0.2 µM.
For COCCNCc1cc2c(c(C(F)(F)F)c1)CN(c1cccc(-c3ccc(C#N)cc3-c3nncn3C)c1)C2=O [AEB-2, 3′-(6-(((2-Methoxyethyl)amino)methyl)-1-oxo-4-(trifluoromethyl)isoindolin-2-yl)-2-(4-methyl-4H-1,2,4-triazol-3-yl)-[1,1′-biphenyl]-4-carbonitrile], the IC50 [1] was ≤ 200 nM, the EC50 [2, 4] was < 0.2 µM and the EC50 [3, 5] was < 0.2 µM.
In the case of CCNc1cc(-c2ccc(C#N)cc2-c2nncn2C)cc(N2Cc3c(cc(CNCCOC)cc3C(F)(F)F)C2=O)n1 [AEC-2, 4-[2-(Ethylamino)-6-(6-{[(2-methoxyethyl)amino]methyl}-1-oxo-4-(trifluoromethyl)-3H-isoindol-2-yl)pyridin-4-yl]-3-(4-methyl-1,2,4-triazol-3-yl)benzonitrile], the IC50 [1] is reported as ≤ 200 nM, the EC50 [2, 4] is reported as < 0.2 µM and the EC50 [3, 5] is reported as < 0.2 µM.
With CCNc1cc(-c2c(-c3nncn3C)cnn2C)cc(N2Cc3c(cc(COCC4(O)CCC4)cc3C(F)(F)F)C2=O)n1 [AED-2, 2-[6-(Ethylamino)-4-[2-methyl-4-(4-methyl-1,2,4-triazol-3-yl)pyrazol-3-yl]pyridin-2-yl]-6-{[(1-hydroxycyclobutyl)methoxy]methyl}-4-(trifluoromethyl)-3H-isoindol-1-one] the IC50 [1] was ≤ 200 nM, the EC50 [2, 4] was < 0.2 µM and the EC50 [3, 5] was 0.2 to 1 µM.
CCNc1cc(-c2ccc(F)cc2-c2nncn2C)cc(N2Cc3c(cc(CO)cc3C(F)(F)F)C2=O)n1 [AEF-1, 2-(6-(Ethylamino)-4-(4-fluoro-2-(4-methyl-4H-1,2,4-triazol-3-yl)phenyl)pyridin-2-yl)-6-(hydroxymethyl)-4-(trifluoromethyl)isoindolin-1-one] was tested, and the IC50 [1] was ≤ 200 nM, the EC50 [2, 4] was < 0.2 µM and the EC50 [3, 5] was < 0.2 µM.
Cn1cnnc1-c1ccccc1-c1cc(C2CC2)nc(N2Cc3ccc(CNCC4(O)CCC4)cc3C2=O)c1 [AEH-1, 2-{6-Cyclopropyl-4-[2-(4-methyl-1,2,4-triazol-3-yl)phenyl]pyridin-2-yl}-6-({[(1-hydroxycyclobutyl)methyl]amino}methyl)-3H-isoindol-1-one] was tested, and the IC50 [1] was ≤ 200 nM, the EC50 [2, 4] was < 0.2 µM and the EC50 [3, 5] was < 0.2 µM.
With Cn1cnnc1-c1ccccc1-c1cc(C2CC2)nc(N2Cc3cc(F)c(CNCC4(O)CCC4)cc3C2=O)c1 [AEI-5, 2-{6-Cyclopropyl-4-[2-(4-methyl-1,2,4-triazol-3-yl)phenyl]pyridin-2-yl}-5-fluoro-6-({[(1-hydroxycyclobutyl)methyl]amino}methyl)-3H-isoindol-1-one] the IC50 [1] was ≤ 200 nM, the EC50 [2, 4] was < 0.2 µM and the EC50 [3, 5] was < 0.2 µM.
With CCNc1cc(-c2c(-c3nncn3C)cnn2C)cc(N2Cc3c(cc(CN(C)CC4(O)CCC4)cc3C(F)(F)F)C2=O)n1 [AEJ-3, 2-(6-(Ethylamino)-4-(1-methyl-4-(4-methyl-4H-1,2,4-triazol-3-yl)-1H-pyrazol-5-yl)pyridin-2-yl)-6-((((1-hydroxycyclobutyl)methyl)(methyl)amino)methyl)-4-(trifluoromethyl)isoindolin-1-one] the IC50 [1] was ≤ 200 nM, the EC50 [2, 4] was < 0.2 µM and the EC50 [3, 5] was < 0.2 µM.
CCNc1cc(-c2ccc(C#N)cc2-c2nncn2C)cc(N2Cc3c(cc(CN[C@@H]4CCC[C@@H]4O)cc3C(F)(F)F)C2=O)n1 [AEL-2, 4-[2-(Ethylamino)-6-[6-({[(1R,2S)-2-hydroxycyclopentyl]amino}methyl)-1-oxo-4-(trifluoromethyl)-3H-isoindol-2-yl]pyridin-4-yl]-3-(4-methyl-1,2,4-triazol-3-yl) benzonitrile] was tested, and the IC50 [1] was ≤ 200 nM, the EC50 [2, 4] was < 0.2 µM and the EC50 [3, 5] was < 0.2 µM.
